Among the data in US20250171420A1 (Monte Rosa Therapeutics, Inc., priority 2022, published 2025) are DC50 and IC50 values, retold here.

For one experiment, the target named is T1, CK1α (Homo sapiens, UniProt P48729).
T1 construct: HEK293 clonal lines with CRISPR KI HiBiT tag on CSNK1A1
Nature of the experiment: CK1α NanoBit Assay (HiBiT-tagged CSNK1A1, HEK293 clonal lines). Format: cell-based. To be noted: HEK293 HiBiT-CSNK1A1/LgBiT cells, 24 h incubation. The method, boiled down:
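HEK293 clones carrying a CRISPR knock-in HiBiT tag on CSNK1A1 and stably expressing LgBiT are treated with compound for 24 hours at 37° C, 5% CO2, then read by luminescence. Response is normalized as 100*(S−N)/(P−N) against plate negative and positive controls, and DC50 values are derived.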
(In general: With HiBiT, luminescence reflects the tagged protein that the partner subunit can reach.)

Another experiment concerns the target CRBN/DDB1 (Homo sapiens, UniProt Q96SW2). The experiment in a line: HTRF binding assay (displacement of Cy5-thalidomide probe from CRBN/DDB1). To be noted: CRBN/DDB1 2.5 nM, Cy5-Thalidomide 100 nM, 30 min; geometric mean; read-out: HTRF_Thali_Disp_DR_geo_IC50. The source says:
Binding of test compounds to CRBN/DDB1 was monitored in an HTRF assay using 1-[5-({2-[2-(2-{[2-(2,6-dioxopiperidin-3-yl)-1,3-dioxo-2,3-dihydro-1H-isoindol-4-yl]oxy}acetamido)ethoxy]ethyl}carbamoyl)pentyl]-3,3-dimethyl-2-[(1E,3E)-5-[(2E)-1,3,3-trimethyl-5-sulfo-2,3-dihydro-1H-indol-2-ylidene]penta-1,3-dien-1-yl]-3H-indol-1-ium-5-sulfonate as a fluorescent probe. In this assay, compounds displace the fluorescently labeled thalidomide-based probe bound to CRBN and fluorescence is monitored with increasing compound concentration. Assays were conducted in Greiner white 384 well HiBase plates (Cat. No 784075-25) in 10 μL total volume. A one pot detection solution of CRBN/DDB1 (2.5 nM), anti-His Terbium Cryptate Gold (1×, PerkinElmer Cat. #: 61HI2TLB), and Cy5-Thalidomide (100 nM, Tenova Cat.: T52461) was prepared in 20 mM HEPES, 20 mM NaCl, 0.2 mM TCEP, 0.2 mM EDTA, and 0.005% Tween20 was dispensed to each assay plate. Test compounds were stored in dry, ambient temperatures at 10 mM. A 10-point, 1:3 dilution series was prepared from 10 mM stock concentrations in Echo-compatible LDV plates. 10 nL of each compound dilution series was dispensed into assays wells using an Echo 650 (Labcyte inc. USA). 10 nL of 10 mM lenalidomide (Selleckchem Cat no. S1029) was transferred into the active-control wells for the assay and 10 nL of DMSO was transferred into the negative control wells. The assay was then allowed to incubate for 30 min at ambient temperature after transferring the test compounds. Plate measurements were taken on a Pherastar FSX (BMG Labtech, Germany) using the HTRF Red filter (Ex. 337 nm, em1: 620 nm, em2: 665 nm) (Flashes: 50, Integration time: 60-400 μs, Z-height: 10 mm, Ratio-multiplier: 10,000). Analysis, HTRF ratio and IC50 values were derived using KNIME analytics (KNIME Zurich) transformation and fitting within Collaborative Drug Discovery (Collaborative Drug Discovery USA) using a 4-parameter logistic fit. HTRF ratio calculation was performed using the following formula: […]
where Y represents the HTRF ratio response (as defined previously), X the compound concentration in μM, Ymin the minimum response plateau, Ymax the maximum response plateau, IC50 the concentration of agonist that gives a response half way between Ymin and Ymax and HillSlope the steepness of the family of curves. No fitting model constraints was applied on Ymin, or Ymax whilst IC50>0 and −0.5>HillSlope>−3
Ki values were derived from the geometric mean of the IC50 values using the Cheng-Prusoff transformation:
where [L] represents the concentration of fluorescent probe in μM, Kd the affinity (binding constant) of the fluorescent probe in units of μM and IC50 the concentration of agonist that gives a response halfway between Ymin and Ymax (as described in 1.2.1)
Analysis and IC50 values were derived using KNIME analytics (KNIME, Zurich) transformation and fitting within Collaborative Drug Discovery (Collaborative Drug Discovery, USA) as described in 1.2.1. Ki values were derived from the geometric mean of the IC50 values using the Cheng-Prusoff transformation as described in 2.2.2. Data was visualized in GraphPad Prism 8.1.2 (GraphPad, USA) and reported as mean and standard deviation. Microsoft Office Excel 2012 (Redmond, WA) was used for calculation of mean and standard deviation.
IC50 data are reported in Table 3 for compounds in Table 1. In Table 3 below, According to the code, A represents a IC50 value of ≤0.1 μM, B represents a IC50 value>0.1 μM and ≤1 μM, C represents an IC50 value>1 μM.
On the technique in general: Time-resolved FRET reads energy transfer from a long-lived donor to a nearby acceptor.

Where only a bound is given, the exact number is not on record here.

CRBN/DDB1, sequence (Q96SW2 whole entry, species assumed): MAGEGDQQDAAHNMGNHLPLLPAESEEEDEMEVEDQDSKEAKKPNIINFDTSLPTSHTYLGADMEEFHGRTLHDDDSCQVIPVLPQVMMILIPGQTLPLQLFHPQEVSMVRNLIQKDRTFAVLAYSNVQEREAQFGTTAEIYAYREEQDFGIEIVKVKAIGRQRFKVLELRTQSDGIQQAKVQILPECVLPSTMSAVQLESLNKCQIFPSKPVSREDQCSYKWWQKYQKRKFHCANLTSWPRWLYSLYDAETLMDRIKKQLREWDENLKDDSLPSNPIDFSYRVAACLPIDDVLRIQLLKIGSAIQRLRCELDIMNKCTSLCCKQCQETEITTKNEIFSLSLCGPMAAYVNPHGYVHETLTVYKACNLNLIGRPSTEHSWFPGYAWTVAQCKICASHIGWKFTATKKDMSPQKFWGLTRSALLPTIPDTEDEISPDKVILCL
CRBN/DDB1, sequence (Q16531 whole entry partner, species assumed): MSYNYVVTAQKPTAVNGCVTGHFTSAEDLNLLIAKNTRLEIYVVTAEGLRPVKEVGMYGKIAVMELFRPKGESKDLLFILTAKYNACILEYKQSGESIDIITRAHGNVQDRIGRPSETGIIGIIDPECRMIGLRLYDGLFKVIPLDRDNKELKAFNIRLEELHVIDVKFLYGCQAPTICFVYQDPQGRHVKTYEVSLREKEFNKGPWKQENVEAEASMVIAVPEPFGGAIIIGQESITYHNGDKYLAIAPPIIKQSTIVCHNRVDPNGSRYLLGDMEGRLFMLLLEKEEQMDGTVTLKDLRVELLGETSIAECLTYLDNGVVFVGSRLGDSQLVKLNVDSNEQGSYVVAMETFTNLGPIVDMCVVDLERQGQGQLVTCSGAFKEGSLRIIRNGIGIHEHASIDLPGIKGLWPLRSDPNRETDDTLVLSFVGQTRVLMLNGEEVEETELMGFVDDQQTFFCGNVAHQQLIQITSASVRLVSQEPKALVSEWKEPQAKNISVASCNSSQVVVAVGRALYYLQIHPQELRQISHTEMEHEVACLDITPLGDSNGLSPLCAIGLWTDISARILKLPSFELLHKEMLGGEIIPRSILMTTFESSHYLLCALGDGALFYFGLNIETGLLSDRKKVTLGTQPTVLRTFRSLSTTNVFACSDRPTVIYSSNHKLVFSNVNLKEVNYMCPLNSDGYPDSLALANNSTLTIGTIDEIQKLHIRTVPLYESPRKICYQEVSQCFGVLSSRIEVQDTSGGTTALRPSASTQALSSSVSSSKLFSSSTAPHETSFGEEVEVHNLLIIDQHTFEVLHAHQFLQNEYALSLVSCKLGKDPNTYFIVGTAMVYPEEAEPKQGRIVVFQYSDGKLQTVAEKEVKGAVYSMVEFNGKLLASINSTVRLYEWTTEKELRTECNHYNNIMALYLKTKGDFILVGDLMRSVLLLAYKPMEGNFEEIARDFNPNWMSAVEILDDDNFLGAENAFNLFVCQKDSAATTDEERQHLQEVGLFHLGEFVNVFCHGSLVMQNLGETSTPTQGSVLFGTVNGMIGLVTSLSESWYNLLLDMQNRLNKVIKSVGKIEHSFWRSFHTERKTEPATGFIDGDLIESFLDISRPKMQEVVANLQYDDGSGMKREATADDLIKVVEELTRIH
T1 sequence (P48729 whole entry): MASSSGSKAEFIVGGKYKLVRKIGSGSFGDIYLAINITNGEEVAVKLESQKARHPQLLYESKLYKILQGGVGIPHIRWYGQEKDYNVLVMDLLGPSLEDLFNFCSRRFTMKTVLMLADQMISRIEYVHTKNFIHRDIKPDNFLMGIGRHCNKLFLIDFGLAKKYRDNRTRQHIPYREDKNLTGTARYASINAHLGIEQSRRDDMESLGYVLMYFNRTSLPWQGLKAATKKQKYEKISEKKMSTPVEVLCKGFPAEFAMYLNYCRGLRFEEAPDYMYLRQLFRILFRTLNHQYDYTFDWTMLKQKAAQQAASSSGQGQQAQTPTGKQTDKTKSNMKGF
T1 sequence (Q96SW2 whole entry, further chain): as the sequence (Q96SW2 whole entry, species assumed) above
T1 sequence (Q16531 2-1140 partner limits assumed): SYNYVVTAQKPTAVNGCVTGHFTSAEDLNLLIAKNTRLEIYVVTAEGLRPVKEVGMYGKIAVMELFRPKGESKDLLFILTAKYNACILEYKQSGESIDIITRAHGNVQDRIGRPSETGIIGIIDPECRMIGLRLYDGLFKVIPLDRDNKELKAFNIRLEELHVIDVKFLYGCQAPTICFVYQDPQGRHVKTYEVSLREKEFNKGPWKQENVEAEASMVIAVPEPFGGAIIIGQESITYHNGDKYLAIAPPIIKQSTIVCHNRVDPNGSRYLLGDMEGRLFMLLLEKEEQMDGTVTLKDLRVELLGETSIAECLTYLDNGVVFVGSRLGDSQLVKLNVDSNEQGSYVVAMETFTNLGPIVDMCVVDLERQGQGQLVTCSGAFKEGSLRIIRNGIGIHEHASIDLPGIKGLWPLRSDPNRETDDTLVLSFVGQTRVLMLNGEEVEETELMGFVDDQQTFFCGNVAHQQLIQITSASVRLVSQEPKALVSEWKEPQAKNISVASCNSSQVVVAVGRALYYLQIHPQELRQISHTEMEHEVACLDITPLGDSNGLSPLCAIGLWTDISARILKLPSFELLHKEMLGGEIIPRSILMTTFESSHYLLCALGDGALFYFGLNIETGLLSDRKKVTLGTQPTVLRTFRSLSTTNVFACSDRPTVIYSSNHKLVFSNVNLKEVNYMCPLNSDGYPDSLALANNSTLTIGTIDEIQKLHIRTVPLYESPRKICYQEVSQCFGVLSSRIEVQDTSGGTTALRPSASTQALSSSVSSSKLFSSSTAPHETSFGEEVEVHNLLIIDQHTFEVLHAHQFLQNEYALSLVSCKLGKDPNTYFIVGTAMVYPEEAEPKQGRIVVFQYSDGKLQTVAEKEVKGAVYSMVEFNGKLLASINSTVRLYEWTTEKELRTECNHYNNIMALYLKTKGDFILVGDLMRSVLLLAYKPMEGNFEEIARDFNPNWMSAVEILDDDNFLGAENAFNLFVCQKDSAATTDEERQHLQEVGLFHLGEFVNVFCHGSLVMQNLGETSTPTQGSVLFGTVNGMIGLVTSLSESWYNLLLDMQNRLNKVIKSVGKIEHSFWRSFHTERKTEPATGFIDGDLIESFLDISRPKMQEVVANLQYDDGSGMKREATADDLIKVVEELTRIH

At CK1α, `O=C1CCC(N2Cc3cc(NC(=O)N4CCc5cccc(F)c54)ccc3C2=O)C(=O)N1` (stereo not drawn) [Compound 163, N-(2-(2,6-dioxopiperidin-3-yl)-1-oxoisoindolin-5-yl)-7-fluoroindoline-1-carboxamide] displayed a DC50 below 0.1 µM. In addition, the IC50 on CRBN/DDB1 is 100 to 1000 nM.

Turning to `O=C1CCC(N2Cc3cc(NC(=O)N4CCc5ccncc54)ccc3C2=O)C(=O)N1` (stereo not drawn) [Compound 105, N-(2-(2,6-dioxopiperidin-3-yl)-1-oxoisoindolin-5-yl)-2,3-dihydro-1H-pyrrolo[2,3-c]pyridine-1-carboxamide], the DC50 at CK1α was below 0.1 µM. Also, the IC50 at CRBN/DDB1 is 100 to 1000 nM.

As for `O=C1CCC(N2Cc3cc(NC(=O)N4c5cccc(F)c5C[C@H]4COC(F)F)ccc3C2=O)C(=O)N1` (stereo partly drawn) [Compound 308, (2S)-2-((difluoromethoxy)methyl)-N-(2-(2,6-dioxopiperidin-3-yl)-1-oxoisoindolin-5-yl)-4-fluoroindoline-1-carboxamide], the DC50 on CK1α is below 0.1 µM. At CRBN/DDB1, the IC50 lay within 100 to 1000 nM.

As for `N#Cc1cccc2c1N(C(=O)Nc1ccc3c(c1)CN(C1CCC(=O)NC1=O)C3=O)CC2` (stereo not drawn) [Compound 147, 7-cyano-N-(2-(2,6-dioxopiperidin-3-yl)-1-oxoisoindolin-5-yl)indoline-1-carboxamide], on CK1α, the DC50 was above 1 µM. Also, the IC50 at CRBN/DDB1 is 100 to 1000 nM.

The compound `O=C1CCC(N2Cc3cc(NC(=O)N4CCc5c(C6COC6)cccc54)ccc3C2=O)C(=O)N1` (stereo not drawn) [Compound 342, N-(2-(2,6-dioxopiperidin-3-yl)-1-oxoisoindolin-5-yl)-4-(oxetan-3-yl)indoline-1-carboxamide] showed a DC50 at CK1α below 0.1 µM. Also, the IC50 at CRBN/DDB1 was in the range of 100 to 1000 nM.

As to `COC[C@@H]1Cc2c(cccc2C(F)(F)F)N1C(=O)Nc1ccc2c(c1)CN(C1CCC(=O)NC1=O)C2=O` (stereo partly drawn) [Compound 325, (2S)—N-(2-(2,6-dioxopiperidin-3-yl)-1-oxoisoindolin-5-yl)-2-(methoxymethyl)-4-(trifluoromethyl)indoline-1-carboxamide], the DC50 at CK1α was below 0.1 µM. At CRBN/DDB1, the IC50 is 100 to 1000 nM.

`N#Cc1ccc2c(c1)N(C(=O)Nc1ccc3c(c1)CN(C1CCC(=O)NC1=O)C3=O)CC2` (stereo not drawn) [Compound 115, 6-cyano-N-(2-(2,6-dioxopiperidin-3-yl)-1-oxoisoindolin-5-yl)indoline-1-carboxamide] displayed a DC50 at CK1α below 0.1 µM. Besides, the IC50 on CRBN/DDB1 fell in the range of 100 to 1000 nM.

For the compound `O=C1CCC(N2Cc3cc(NC(=O)N4c5ccccc5CC45COC5)ccc3C2=O)C(=O)N1` (stereo not drawn) [Compound 322, N-(2-(2,6-dioxopiperidin-3-yl)-1-oxoisoindolin-5-yl)spiro[indoline-2,3′-oxetane]-1-carboxamide], at CK1α, the DC50 was below 0.1 µM. Also, the IC50 on CRBN/DDB1 was 100 to 1000 nM.

`O=C1CCC(N2Cc3cc(NC(=O)N4c5cccc(F)c5CC45COC5)ccc3C2=O)C(=O)N1` (stereo not drawn) [Compound 304, N-(2-(2,6-dioxopiperidin-3-yl)-1-oxoisoindolin-5-yl)-4-fluorospiro[indoline-2,3′-oxetane]-1-carboxamide]: on CK1α, the DC50 is below 0.1 µM. Besides, at CRBN/DDB1, the IC50 was 100 to 1000 nM.

Regarding `O=C1CCC(N2Cc3cc(NC(=O)N4c5ccc(F)cc5CC45COC5)ccc3C2=O)C(=O)N1` (stereo not drawn) [Compound 306, N-(2-(2,6-dioxopiperidin-3-yl)-1-oxoisoindolin-5-yl)-5-fluorospiro[indoline-2,3′-oxetane]-1-carboxamide], the DC50 at CK1α is below 0.1 µM. For the same compound, at CRBN/DDB1, the IC50 is 100 to 1000 nM.

`O=C1CCC(N2Cc3cc(NC(=O)N4CC5(CCCC5)c5ccccc54)ccc3C2=O)C(=O)N1` (stereo not drawn) [Compound 192, N-(2-(2,6-dioxopiperidin-3-yl)-1-oxoisoindolin-5-yl)spiro[cyclopentane-1,3′-indoline]-1′-carboxamide] gave a DC50 at CK1α below 0.1 µM. On CRBN/DDB1, the IC50 was in the range of 100 to 1000 nM.

Take `O=C1CCC(N2Cc3cc(NC(=O)N4CCc5cc(C6CCOC6)ccc54)ccc3C2=O)C(=O)N1` (stereo not drawn) [Compound 345, N-(2-(2,6-dioxopiperidin-3-yl)-1-oxoisoindolin-5-yl)-5-(tetrahydrofuran-3-yl)indoline-1-carboxamide]: the DC50 at CK1α is below 0.1 µM. Also, at CRBN/DDB1, the IC50 was below 100 nM.

Take `COCC1c2ccc(C(F)F)cc2CN1C(=O)Nc1ccc2c(c1)CN(C1CCC(=O)NC1=O)C2=O` (stereo not drawn) [Compound 299, 5-(difluoromethyl)-N-(2-(2,6-dioxopiperidin-3-yl)-1-oxoisoindolin-5-yl)-1-(methoxymethyl)isoindoline-2-carboxamide]: the DC50 at CK1α was below 0.1 µM. The IC50 on CRBN/DDB1 fell in the range of 100 to 1000 nM.

Turning to `CCc1cccc2c1N(C(=O)Nc1ccc3c(c1)CN(C1CCC(=O)NC1=O)C3=O)CC2` (stereo not drawn) [Compound 162, N-(2-(2,6-dioxopiperidin-3-yl)-1-oxoisoindolin-5-yl)-7-ethylindoline-1-carboxamide], at CK1α, the DC50 is below 0.1 µM. For the same compound, the IC50 at CRBN/DDB1 was in the range of 100 to 1000 nM.

In turn, `CC(C)C1CN(C(=O)Nc2ccc3c(c2)CN(C2CCC(=O)NC2=O)C3=O)c2ccccc21` (stereo not drawn) [Compound 203, N-(2-(2,6-dioxopiperidin-3-yl)-1-oxoisoindolin-5-yl)-3-isopropylindoline-1-carboxamide] gave a DC50 on CK1α below 0.1 µM. In addition, the IC50 on CRBN/DDB1 lay in the range of 100 to 1000 nM.

`O=C1CCC(N2Cc3cc(NC(=O)N4CCc5ccc(C6CCC6)cc54)ccc3C2=O)C(=O)N1` (stereo not drawn) [Compound 358, 6-cyclobutyl-N-(2-(2,6-dioxopiperidin-3-yl)-1-oxoisoindolin-5-yl)indoline-1-carboxamide] came in with a DC50 at CK1α below 0.1 µM. In addition, the IC50 at CRBN/DDB1 was in the range of 100 to 1000 nM.

In the case of `COC(C)c1cccc2c1CCN2C(=O)Nc1ccc2c(c1)CN(C1CCC(=O)NC1=O)C2=O` (stereo not drawn) [Compound 343, N-(2-(2,6-dioxopiperidin-3-yl)-1-oxoisoindolin-5-yl)-4-(1-methoxyethyl)indoline-1-carboxamide], on CK1α, the DC50 was below 0.1 µM. In addition, the IC50 on CRBN/DDB1 lay in the range of 100 to 1000 nM.

On to `O=C1CCC(N2Cc3cc(NC(=O)N4CCc5ccc(-n6cccn6)cc54)ccc3C2=O)C(=O)N1` (stereo not drawn) [Compound 290], for which the DC50 at CK1α is below 0.1 µM. In addition, the IC50 on CRBN/DDB1 fell in the range of 100 to 1000 nM.

Consider `CN(C)C(=O)[C@@H]1Cc2ccccc2N1C(=O)Nc1ccc2c(c1)CN(C1CCC(=O)NC1=O)C2=O` (stereo partly drawn) [Compound 327, (2S)-N1-(2-(2,6-dioxopiperidin-3-yl)-1-oxoisoindolin-5-yl)-N2,N2-dimethylindoline-1,2-dicarboxamide], for which, at CK1α, the DC50 fell in the range of 0.1 to 1 µM. Besides, at CRBN/DDB1, the IC50 fell in the range of 100 to 1000 nM.

With `COC[C@H]1CN(C(=O)Nc2ccc3c(c2)CN(C2CCC(=O)NC2=O)C3=O)c2ccc(C(F)(F)F)cc21` (stereo partly drawn) [Compound 319, (3R)—N-(2-(2,6-dioxopiperidin-3-yl)-1-oxoisoindolin-5-yl)-3-(methoxymethyl)-5-(trifluoromethyl)indoline-1-carboxamide], on CK1α, the DC50 was below 0.1 µM. Besides, at CRBN/DDB1, the IC50 lay within 100 to 1000 nM.

Take `COC[C@H]1Cc2cc(C(F)(F)F)ncc2N1C(=O)Nc1ccc2c(c1)CN(C1CCC(=O)NC1=O)C2=O` (stereo partly drawn) [Compound 295, (2R)—N-(2-(2,6-dioxopiperidin-3-yl)-1-oxoisoindolin-5-yl)-2-(methoxymethyl)-5-(trifluoromethyl)-2,3-dihydro-1H-pyrrolo[2,3-c]pyridine-1-carboxamide]: the DC50 on CK1α is below 0.1 µM. Besides, at CRBN/DDB1, the IC50 was 100 to 1000 nM.
